Consider 18 molecules from US12152008B2, “Cyclopentaimidazolones for the treatment of cancer” (The Broad Institute, Inc., priority 2018, dated 2024).

Assay type in all cases: cell-based
For test [1], the system named is BxPC-3. The experiment in a line: Cell line viability screen, IC50 (CellTiter-Glo 3D). The following applies: BxPC3 cell line. As to the method:
(§1) Compounds were tested on patient-derived tumor organoids. Such organoids retain the three-dimensional structure of the tissue providing conditions that are more representative of in vivo behavior. Such organoids are described by Boj, Sylvia, et al., Cell 160: 324 (2015), hereby incorporated by reference in its entirety. Briefly, cultures of primary and metastatic pancreatic tumor specimens as patient-derived xenografts, 3D tumor organoids, and patient-derived cell lines were produced including a cohort of 21 patient-derived xenografts and 67 organoid cultures from primary and metastatic pancreatic tumor specimens. The functional dependencies of compounds in these patient-derived samples were measured on a 3D organoid and its matched 2D patient-derived cell lines. Conditions were optimized for performing high-throughput compound screening of 3D organoids, including suspension culture with Matrigel in 384-well plates, viability assessment with CellTiter-Glo 3D. […] FIG. 2A illustrates the dose dependent responses of an enantioenriched sample of Compound E1 synthesized using an enantio-purified sample of E1 in the (R,R)-configuration (70% ee) (e.g., E1(R,R)), an enantioenriched sample of E1 (“E1(S,S)”), and racemic mixtures of E1 on NCIH2405 cells (“E1”).
(§2) Table 1 gives the IC50 values (μM) of compounds having the structure of formula (I) (including E1(S,S) and E1(Rac) in patient-derived organoids and several cell lines. Compounds E1-E12 were synthesized as described above as racemates (i.e., E1(Rac)-R12(Rac), and E1(S,S) and E1(R,R) were synthesized using the (S,S)-5 reagent or (R,R)-5 reagent, respectively, as described above.

Test [2] has as its system NCIH2405 cells. Described as above. To be noted: read-out: IC50 NCIH 2405. On the procedure: as §1, §2
Test [3] relates to OV-90. Described as above. The following applies: OV90 cell line. On the procedure:
as §1, §2

In test [4] the test system is PaTu 8902. Described as above. The following applies: PaTu 8902 cell line. On the procedure:
as §1, §2

In test [5] the test system is PF0039 patient-derived organoid. The experiment in a line: Patient-derived organoid viability screen, IC50. To be noted: read-out: IC50 PF 0039. On the procedure: as §1, §2
In test [6] the test system is PF0172_T2 patient-derived organoid. The experiment in a line: Patient-derived organoid viability screen, IC50. To be noted: read-out: IC50 PF 0172_T2. As to the method: as §1, §2
For test [7], the system named is PF0202 patient-derived organoid. The experiment in a line: Patient-derived organoid viability screen, IC50. To be noted: read-out: IC50 PF 0202. As to the method: as §1, §2
Test [8] concerns patient derived organoids and cell lines. The experiment in a line: Organoid and cell line screen, panel (FIG. 1). The following applies: organoids PF0039, PF0071, PF0172-T2, PF0202, cell lines PaTu 8902, BxPC-3, NCIH2405, OV-90. On the procedure:
as §1

In test [9] the test system is PF0071 organoids. The experiment in a line: PF0071 sensitivity screen (organoid dose response). To be noted: optically pure enantiomers. Further details: key: Active: the analog typically with the lower IC50 value was identified as “active”; Inactive: the analog with the higher IC50 value was identified as “inactive.”. As to the method: as §1
E1(Rac), E5(Rac), and E8(Rac) were synthesized as racemic mixtures (i.e., without a chiral catalyst) and separated into six optically pure compounds.
With the absolute stereochemistry identified, the correlation between specific isomer and activity was determined for PF0071 organoids. Table 2 compares the activities of each set of racemates that were measured as compared to the designations illustrated in FIG. 2B.
The response to dose of several compounds (including a linkered analog) on PF0071 organoids were run. Enantiomers of E1, E5, and E8 were tested and compared to results with a linked compound synthesized as a racemic mixture as described above (identified in FIG. 3 as “Linked E1(Rac)”) having the structure: […]

In the case of `COC1C=CC2C1N(CC(C)C)C(=O)N2c1ccccc1` (racemic) [Compound E1], the IC50 in test [1] is more than 100 µM; in test [2] it was 7.41 µM; in [3] it was more than 100 µM; in test [4], more than 100 µM; in [5] it was 22.3 µM; in [6], 3.41 µM. In test [7], the IC50 worked out at 55.4 µM. Besides, the “Effect on viability across panel” value in [8] is given as “dose-dependent effect on only a subset of organoids”.

Regarding `CC(C)CN1C(=O)N(c2ccccc2)C2C=CC(O)C21` (racemic) [E2(Rac)], the IC50 in [1] is more than 100 µM; in [2] it was more than 100 µM; in test [3], more than 100 µM; in [4], more than 100 µM; in test [5] it was 31.7 µM; in [6], 4.05 µM. The IC50 in test [7] was more than 100 µM.

With `COC1C=CC2C1N(C)C(=O)N2c1ccccc1` (racemic) [E3(Rac)], the IC50 in [1] was more than 100 µM; in [2] it was more than 100 µM; in test [3] it was more than 100 µM; in test [4] it was more than 100 µM; in [5], more than 100 µM; in [6] it was 85.8 µM. The IC50 in test [7] is more than 100 µM.

Take `CCOC1C=CC2C1N(CC(C)C)C(=O)N2c1ccccc1` (racemic) [E4(Rac)]: the IC50 was 96.4 µM in test [1]; 14.3 µM in test [2]; 76.9 µM in test [3]; more than 100 µM in test [4]; 25.8 µM in test [5]; 3.4 µM in test [6]. In test [7], the concentration for half-maximal inhibition (IC50) is 40.2 µM.

As to `COC1CCC2C1N(CC(C)C)C(=O)N2c1ccccc1` (racemic) [E5(Rac)], the IC50 was 64.4 µM in test [1]; 4.11 µM in test [2]; 83.3 µM in [3]; more than 100 µM in test [4]; 7.26 µM in [5]; 1.16 µM in [6]. The IC50 in [7] stood at 16.5 µM.

For `COC1C=CC2C1N(CC(C)C)C(=O)N2Cc1ccccc1` (racemic) [E6(Rac)], the IC50 was more than 100 µM in [1]; more than 100 µM in test [2]; 96.4 µM in [3]; more than 100 µM in test [4]; 40.7 µM in test [5]; 17.4 µM in [6]. Moreover, the 50% inhibitory concentration (IC50) in [7] is 65.3 µM.

In the case of `COC1C=CC2C1N(CC(C)C)C(=O)N2c1ccc(C#N)cc1` (racemic) [E7(Rac)], the IC50 was more than 100 µM in test [1]; more than 100 µM in test [2]; more than 100 µM in test [3]; 75.1 µM in test [4]; more than 100 µM in test [5]; more than 100 µM in [6]. The IC50 in [7] is not below 100 µM.

Take `COC1C=CC2C1N(CC(C)C)C(=O)N2c1ccc(Cl)cc1` (racemic) [E8(Rac)]: the IC50 was determined as 17.3 µM in test [1]; 2.58 µM in test [2]; 30.7 µM in test [3]; 33.9 µM in [4]; 8.19 µM in test [5]; 2.15 µM in test [6]. The IC50 in test [7] amounted to 27.9 µM.

On to `COc1ccc(N2C(=O)N(CC(C)C)C3C(OC)C=CC32)cc1` (racemic) [E9(Rac)], for which the IC50 stood at 56.4 µM in [1]; 58.8 µM in test [2]; 65.5 µM in test [3]; 76.8 µM in test [4]; 43.5 µM in [5]; 88.6 µM in test [6]. The IC50 in test [7] amounted to 47.1 µM.

As to `COC1C=CC2C1N(CC(C)C)C(=O)N2c1cccc(F)c1` (racemic) [E10(Rac)], the IC50 is 66.6 µM in test [1]; 3.44 µM in [2]; 83.9 µM in test [3]; more than 100 µM in test [4]; 8.14 µM in test [5]; 2.22 µM in test [6]. For the same molecule, the 50% inhibitory concentration (IC50) in test [7] is 36.9 µM.

As for `COC1C=CC2C1N(CC(C)C)C(=O)N2c1ccc(F)cc1` (racemic) [E11(Rac)], the IC50 in [1] is more than 100 µM; in test [2], 10.2 µM; in [3] it was 93.6 µM; in test [4] it was more than 100 µM; in test [5], 28.2 µM; in test [6], 4.08 µM. For the same molecule, the IC50 in [7] came out at 49.5 µM.

As to `COC1C=CC2C1N(CC(C)C)C(=O)N2c1ccc(C)cc1` (racemic) [E12(Rac)], the IC50 was more than 100 µM in [1]; 2.04 µM in test [2]; 85.9 µM in test [3]; more than 100 µM in test [4]; 7.42 µM in test [5]; 1.21 µM in test [6]. Further, the IC50 in test [7] turned out to be 51.4 µM.

Turning to `CO[C@@H]1CC[C@@H]2[C@H]1N(CC(C)C)C(=O)N2c1ccccc1` (stereo in doubt), the “Activity (active or inactive)” value in [9] is “Active”.

As to `CO[C@H]1CC[C@H]2[C@@H]1N(CC(C)C)C(=O)N2c1ccccc1` (stereo in doubt), the “Activity (active or inactive)” value in test [9] is on record as “Inactive”.

Turning to `CO[C@@H]1C=C[C@@H]2[C@H]1N(CC(C)C)C(=O)N2c1ccccc1` (stereo in doubt), the “Activity (active or inactive)” value in [9] is reported as “Active”.

Take `CO[C@H]1C=C[C@H]2[C@@H]1N(CC(C)C)C(=O)N2c1ccccc1` (stereo in doubt): the “Activity (active or inactive)” value in test [9] is given as “Inactive”.

Take `CO[C@@H]1C=C[C@@H]2[C@H]1N(CC(C)C)C(=O)N2c1ccc(Cl)cc1` (stereo in doubt): in [9], the “Activity (active or inactive)” value is “Active”.

On to `CO[C@H]1C=C[C@H]2[C@@H]1N(CC(C)C)C(=O)N2c1ccc(Cl)cc1` (stereo in doubt), for which the “Activity (active or inactive)” value in test [9] was “Inactive”.
